# Assay results published in patent publication US12195427B2, “MASP-2 inhibitors and methods of use” (priority 2018, dated 2025).
# Where a name gives a salt, the structure may show the parent alone.
# Molecular target: MASP-2 CCP2-SP (Homo sapiens (Human), UniProt O00187)
# Test: MASP-2 co-crystallization, X-ray crystallography and structure analysis (H-bonds, van der Waals contacts);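 on Ligand-pharmacophore element distance, pharmacophore element C2: distance from averaged pharmacophore element to bound ligand; missing value means element absent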;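 on Ligand-pharmacophore element distance, pharmacophore element C3: distance from averaged pharmacophore element to bound ligand; missing value means element absent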;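 on Ligand-pharmacophore element distance, pharmacophore element C4: distance from averaged pharmacophore element to bound ligand; missing value means element absent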;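 on Ligand-pharmacophore element distance, pharmacophore element C5: distance from averaged pharmacophore element to bound ligand; missing value means element absent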
# Design: van der Waals contact distance, MASP-2 HIS 483 atom CD2 / van der Waals contact distance, MASP-2 HIS 483 atom NE2 / van der Waals contact distance, SER 654 C to compound atom / van der Waals contact distance, SER 654 O to compound atom / van der Waals contact distance, TRP 655 C to compound atom / van der Waals contact distance, MASP-2 GLY 528 atom CA / van der Waals contact distance TRP 655 atom CZ3 / van der Waals contact distance TRP 655 atom N / van der Waals contact distance TRP 655 atom CE3 / van der Waals contact distance GLY 656 atom C / van der Waals contact distance GLY 656 atom CA / van der Waals contact distance GLY 656 atom O / van der Waals contact distance, MASP-2 TYR 607 atom CD1 / van der Waals contact distance, MASP-2 PRO 606 atom O / d(C3,CA1) / d(CA1,N1)2 / d(H4,O1) / d(H4,O2) / d(O1,O2) / d(CA1,O2) / d(CA6,O1) / d(CA6,O2) / d(CA1,C5) / d(O2,H3) / d(N2,C2) / d(CA5,N2) / d(N2,C4) / d(N2,C6) / d(N2,CA3) / d(N2,O3) / d(O4,H2): unit not given beside the values
# Details: for H-bond distance to MASP-2 ASP 627 atom OD2 / H-bond distance to MASP-2 GLY 656 atom N / H-bond distance to MASP-2 GLY 656 atom O / H-bond distance to MASP-2 SER 628 atom O / H-bond distance to MASP-2 SER 654 atom O / H-bond distance to MASP-2 SER 657 atom O: Table A1 (H-Bonds); for H-bond distance to MASP-2 ASP 627 atom OD2: ASP 627 OD2; for H-bond distance to MASP-2 GLY 656 atom N: GLY 656 N; for H-bond distance to MASP-2 GLY 656 atom O: GLY 656 O; for H-bond distance to MASP-2 SER 628 atom O: SER 628 O; for H-bond distance to MASP-2 SER 654 atom O: SER 654 O; for H-bond distance to MASP-2 SER 657 atom O: SER 657 O; for van der Waals contact distance, MASP-2 HIS 483 atom CD2 / van der Waals contact distance, MASP-2 HIS 483 atom NE2: Table A2-1; for van der Waals contact distance, VAL 653 CG1 to compound atom: Table A2-11; for van der Waals contact distance TRP 655 atom CZ3: MASP-2 TRP 655 CZ3; for Ligand-pharmacophore element distance, pharmacophore element C2 / Ligand-pharmacophore element distance, pharmacophore element C3 / Ligand-pharmacophore element distance, pharmacophore element C4 / Ligand-pharmacophore element distance, pharmacophore element C5 / Ligand-pharmacophore element distance, pharmacophore element C6 / Ligand-pharmacophore element distance, pharmacophore element C7 / Ligand-pharmacophore element distance, pharmacophore element CA1 / Ligand-pharmacophore element distance, pharmacophore element CA2 / Ligand-pharmacophore element distance, pharmacophore element CA3 / Ligand-pharmacophore element distance, pharmacophore element CA4 / Ligand-pharmacophore element distance, pharmacophore element CA5 / Ligand-pharmacophore element distance, pharmacophore element CA6: Table A4-1; for d(C3,CA1) / d(CA1,N1)2 / d(CA1,O1) / d(CA1,O2) / d(H4,O1) / d(H4,O2) / d(O1,O2): Table A5-1 pharmacophore: distance between elements, S2/S1 region; for a(C3, CA1, O1) / a(CA1, O1, O2) / a(O1, O2, H4) / a(N1, CA1, O1) b): Table A6-1 pharmacophore angle; for a(N1, CA1, O1) b): Methyl-amino-pyridine compounds; for a(O1, O2, H3) / a(O1, O2, N2) / a(O2, N2, CA2): Table A6-2 pharmacophore angle; for Pharmacophore torsion angle a(C3, CA1, O1, H4) / Pharmacophore torsion angle a(H4, O1, O2, H3) / Pharmacophore torsion angle a(H4, O1, O2, N2) / Pharmacophore torsion angle a(N1, CA1, O1, H4) / Pharmacophore torsion angle a(O1, H4, O2, CA1): Table A7-1
# How it was run: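 Human MASP-2 CCP2-SP, untagged or 6His-tagged, was expressed in E. coli and crystallized. Crystals were soaked with inhibitor in crystallization solution, flash-cooled in liquid nitrogen, and diffracted with synchrotron X-rays (wavelength 1.0). Structures were solved by molecular replacement from 1Q3X and partially refined.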
# [1] = Table A2-7: SER 628 (CB, O, OG)
# [2] = Table A2 section before Table A2-8
# [3] = Table A5-2 pharmacophore distance, S3/S4 region
# [4] = between pharmacophore elements of the bound compound
# [5] = Table A7-2, between pharmacophore elements of the bound compound
# Chain of MASP-2 CCP2-SP (O00187 445-686): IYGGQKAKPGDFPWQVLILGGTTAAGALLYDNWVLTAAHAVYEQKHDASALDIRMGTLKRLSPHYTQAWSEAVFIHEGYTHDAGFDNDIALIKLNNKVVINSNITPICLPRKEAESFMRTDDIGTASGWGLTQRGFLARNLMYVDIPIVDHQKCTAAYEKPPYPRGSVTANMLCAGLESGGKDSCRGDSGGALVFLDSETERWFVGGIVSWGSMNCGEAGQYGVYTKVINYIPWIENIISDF
# Chain of MASP-2 CCP2-SP (O00187 364-432 partner): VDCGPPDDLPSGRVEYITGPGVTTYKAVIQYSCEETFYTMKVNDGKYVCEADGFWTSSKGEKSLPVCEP
structure (smiles),measurement,setting,value
"Cc1nc(N)ccc1CNC(=O)[C@H](C)NC(=O)[C@H]1C[C@H](Cc2ccccc2-c2ccccc2)CN1 [compound 1373, (2R,4S)-4-([1,1′-Biphenyl]-2-ylmethyl)-N—((S)-1-(((6-amino-2-methylpyridin-3-yl)methyl)amino)-1-oxopropan-2-yl)pyrrolidine-2-carboxamide Di-trifluoroacetate salt]",H-bond distance to MASP-2 ASP 627 atom OD2,,3.21
same,H-bond distance to MASP-2 GLY 656 atom N,,3.2
same,H-bond distance to MASP-2 GLY 656 atom O,,2.76
same,H-bond distance to MASP-2 SER 628 atom O,,3.18
same,H-bond distance to MASP-2 SER 654 atom O,,3.04
same,H-bond distance to MASP-2 SER 657 atom O,,2.89
same,"van der Waals contact distance, MASP-2 HIS 483 atom CD2",,3.71
same,"van der Waals contact distance, MASP-2 HIS 483 atom NE2",,3.62
same,"van der Waals contact distance, MASP-2 GLY 528 atom CA",Table A2-2,3.79
same,"van der Waals contact distance, MASP-2 amino acid atom to compound atom",[1],3.64
same,"van der Waals contact distance, VAL 653 CG1 to compound atom",,3.34
same,"van der Waals contact distance, SER 654 O to compound atom",Table A2-12,3.83
same,"van der Waals contact distance, TRP 655 CA to compound atom",Table A2-12,3.44
same,van der Waals contact distance TRP 655 atom CE3,"Table A2-13, MASP-2 TRP 655 CE3, compound atom in line below",3.65
same,van der Waals contact distance TRP 655 atom CZ3,Table A2-13,3.57
same,"van der Waals contact distance, MASP-2 amino acid atom to compound atom",[2],3.83
same,"Ligand-pharmacophore element distance, pharmacophore element C2",,0
same,"Ligand-pharmacophore element distance, pharmacophore element C3",,0.08
same,"Ligand-pharmacophore element distance, pharmacophore element C4",,0
same,"Ligand-pharmacophore element distance, pharmacophore element C5",,0
same,"Ligand-pharmacophore element distance, pharmacophore element C6",,0
same,"Ligand-pharmacophore element distance, pharmacophore element C7",,0
same,"Ligand-pharmacophore element distance, pharmacophore element CA1",,0.56
same,"Ligand-pharmacophore element distance, pharmacophore element CA2",,0.54
same,"Ligand-pharmacophore element distance, pharmacophore element CA3",,0
same,"Ligand-pharmacophore element distance, pharmacophore element CA4",,0
same,"Ligand-pharmacophore element distance, pharmacophore element CA5",,2.5
same,"Ligand-pharmacophore element distance, pharmacophore element CA6",,0
same,"d(C3,CA1)",,2.85
same,"d(CA1,N1)2",,1.37
same,"d(CA1,O1)",,4.41
same,"d(CA1,O2)",,3.86
same,"d(H4,O1)",,4.40
same,"d(H4,O2)",,3.78
same,"d(O1,O2)",,3.38
same,"d(CA5,N2)",[3],6.60
same,"d(N2,CA2)",[3],6.03
same,"d(O2,H3)",[3],4.31
same,"d(O2,N2)",[3],2.65
same,"a(C3, CA1, O1)",,149.81
same,"a(CA1, O1, O2)",,105.28
same,"a(O1, O2, H4)",,131.90
same,"a(N1, CA1, O1) b)",,174.08
same,"a(O1, O2, H3)",,147.32
same,"a(O1, O2, N2)",,141.07
same,"a(O2, N2, CA2)",,156.78
same,"Pharmacophore torsion angle a(C3, CA1, O1, H4)",[4],25.67
same,"Pharmacophore torsion angle a(H4, O1, O2, H3)",[4],50.98
same,"Pharmacophore torsion angle a(H4, O1, O2, N2)",[4],139.02
same,"Pharmacophore torsion angle a(N1, CA1, O1, H4)",[4],4.28
same,"Pharmacophore torsion angle a(O1, H4, O2, CA1)",[4],−84.42
same,"Pharmacophore torsion angle a(O1, O2, N2, CA2)",[5],127.58
same,"Pharmacophore torsion angle a(O1, O2, N2, CA5)",[5],91.76
"Cc1nc(N)ccc1CNC(=O)[C@H](C)NC(=O)[C@H]1C[C@H](Cc2cc(-c3ccccc3)cs2)CN1 [compound 1399, (2R,4R)—N—((S)-1-(((6-Amino-2-methylpyridin-3-yl)methyl)amino)-1-oxopropan-2-yl)-4-((4-phenylthiophen-2-yl)methyl)pyrrolidine-2-carboxamide Dihydrochloride]",H-bond distance to MASP-2 ASP 627 atom OD2,,3.26
same,H-bond distance to MASP-2 GLY 656 atom N,,3.21
same,H-bond distance to MASP-2 GLY 656 atom O,,2.75
same,H-bond distance to MASP-2 SER 628 atom O,,3.15
same,H-bond distance to MASP-2 SER 654 atom O,,3.04
same,H-bond distance to MASP-2 SER 657 atom O,,2.86
same,"van der Waals contact distance, MASP-2 amino acid atom to compound atom",Table A2,3.7
same,"van der Waals contact distance, MASP-2 HIS 483 atom CD2",,3.72
same,"van der Waals contact distance, MASP-2 HIS 483 atom NE2",,3.6
same,"van der Waals contact distance, MASP-2 PHE 529 atom CD2",Table A2-3,3.85
same,"van der Waals contact distance, MASP-2 PHE 529 atom CE2",Table A2-3,3.7
same,"van der Waals contact distance, MASP-2 amino acid atom to compound atom",[1],3.61
same,"van der Waals contact distance, VAL 653 CG1 to compound atom",,3.32
same,"van der Waals contact distance, TRP 655 CA to compound atom",Table A2-12,3.43
same,van der Waals contact distance TRP 655 atom CZ3,Table A2-13,3.42
same,"van der Waals contact distance, MASP-2 amino acid atom to compound atom",[2],3.81
same,"Ligand-pharmacophore element distance, pharmacophore element C2",,0
same,"Ligand-pharmacophore element distance, pharmacophore element C3",,0.14
same,"Ligand-pharmacophore element distance, pharmacophore element C4",,0
same,"Ligand-pharmacophore element distance, pharmacophore element C5",,0
same,"Ligand-pharmacophore element distance, pharmacophore element C6",,0
same,"Ligand-pharmacophore element distance, pharmacophore element C7",,0
same,"Ligand-pharmacophore element distance, pharmacophore element CA1",,0.59
same,"Ligand-pharmacophore element distance, pharmacophore element CA2",,0.85
same,"Ligand-pharmacophore element distance, pharmacophore element CA3",,0
same,"Ligand-pharmacophore element distance, pharmacophore element CA4",,2.39
same,"Ligand-pharmacophore element distance, pharmacophore element CA5",,0
same,"Ligand-pharmacophore element distance, pharmacophore element CA6",,0
same,"d(C3,CA1)",,2.86
same,"d(CA1,N1)2",,1.38
same,"d(CA1,O1)",,4.40
same,"d(CA1,O2)",,3.92
same,"d(H4,O1)",,4.40
same,"d(H4,O2)",,3.82
same,"d(O1,O2)",,3.33
same,"d(N2,CA2)",[3],5.96
same,"d(O2,H3)",[3],4.09
same,"d(O2,N2)",[3],2.67
same,"a(C3, CA1, O1)",,149.86
same,"a(CA1, O1, O2)",,105.80
same,"a(O1, O2, H4)",,132.84
same,"a(N1, CA1, O1) b)",,173.87
same,"a(O1, O2, H3)",,145.77
same,"a(O1, O2, N2)",,143.45
same,"a(O2, N2, CA2)",,157.06
same,"Pharmacophore torsion angle a(C3, CA1, O1, H4)",[4],24.20
same,"Pharmacophore torsion angle a(H4, O1, O2, H3)",[4],50.25
same,"Pharmacophore torsion angle a(H4, O1, O2, N2)",[4],142.63
same,"Pharmacophore torsion angle a(N1, CA1, O1, H4)",[4],0.87
same,"Pharmacophore torsion angle a(O1, H4, O2, CA1)",[4],−83.35
same,"Pharmacophore torsion angle a(O1, O2, N2, CA2)",[5],126.87
same,"Pharmacophore torsion angle a(O1, O2, N2, CA4)",[5],113.10
